Test results: patent EP1430879A2, “Arylsulfatase inhibitors in deodorants and antiperspirants” (Henkel Kommanditgesellschaft auf Aktien, priority 2002, dated 2004)

Biological target: T1, Arylsulfatase (EC 3.1.6.1) aus Aerobacter aerogenes (Klebsiella aerogenes, UniProt P20713)
T1 construct: purchased Sigma S-1629
T1 sequence (P20713 21-464): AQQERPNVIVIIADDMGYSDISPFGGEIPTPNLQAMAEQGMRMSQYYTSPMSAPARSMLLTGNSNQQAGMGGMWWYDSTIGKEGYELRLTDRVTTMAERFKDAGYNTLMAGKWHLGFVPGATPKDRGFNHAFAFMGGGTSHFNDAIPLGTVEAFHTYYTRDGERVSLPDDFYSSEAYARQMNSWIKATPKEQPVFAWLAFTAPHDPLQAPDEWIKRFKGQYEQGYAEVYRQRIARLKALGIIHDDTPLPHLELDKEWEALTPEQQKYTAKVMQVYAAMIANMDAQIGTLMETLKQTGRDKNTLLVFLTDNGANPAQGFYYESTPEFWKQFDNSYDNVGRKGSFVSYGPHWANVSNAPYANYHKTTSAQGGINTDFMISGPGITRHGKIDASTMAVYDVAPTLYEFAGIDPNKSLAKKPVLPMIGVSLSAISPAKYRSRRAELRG
Test: Arylsulfatase enzyme inhibition test (Sigma sulfatase assay S-1629, p-nitrophenyl sulfate substrate, spectrophotometric at 420 nm)
Type: biochemical
Conditions: raw material as supplied in aqueous solution; 187 mM Tris/HCl pH 7,1, 8 mM pNPS, 0,05 U/ml Arylsulfatase, 37°C
Description: Da die hautrelevante Arylsulfatase nicht zur Verfügung stand, diente eine handelsübliche Arylsulfatase (EC 3.1.6.1) aus Aerobacter aerogenes als Modellenzym, um die Hemmwirkung der erfindungsgemäß verwendeten Inhibitoren zu testen. Die Tests wurden mit dem Sulfatase-Enzymassay Product No. S-1629 von Sigma gemäß den Angaben im Sigma Quality Control Test Procedure-Datenblatt durchgeführt. Als Referenz-Inhibitoren dienten Ascorbinsäure und ATP.
Zur Auswertung wurde die Arylsulfatase-katalysierte Bildung von p-Nitrophenol aus dem Substrat p-Nitrophenylsulfat (pNPS) spektrophotometrisch (λ = 420 nm) verfolgt. Die Reaktionslösungen von 1000 µl, die auf eine Reaktionstemperatur von 37°C temperiert wurden, enthielten 187 mM Tris/HCl (pH 7,1), 8 mM pNPS und eine Startkonzentration von 0,05 U/ml Arylsulfatase. Die Einheit U der Enzymaktivität wurde so definiert, dass 1 U Sulfatase 1,0 µmol pNPS pro Minute bei pH 7,1 und 37°C hydrolysiert. Die Testdurchführung ist auch offenbart bei H.R. Fowler und D. H. Rammler, Biochemistry 3, 230, 1964.
Die Reaktion wurde durch Zugabe des Enzyms gestartet und der Anstieg der Absorption bei λ = 420 nm über 5 Minuten verfolgt. Der lineare Anstieg der Absorption (A) pro Zeiteinheit (t) ist hierbei ein Maß für die Aktivität des Enzyms (ΔA/Δt). Die Aktivität des Enzyms in Abwesenheit eines Inhibitors, (ΔA1/Δt1 ), wurde als Referenz gleich 100% gesetzt. […]

COc1cc2c(cc1O)CCC(C)(C)O2 [Lipochroman-6, 3,4-Dihydro-7-methoxy-2,2-dimethyl-2H-1-benzopyran-6-ol]
Konzentration mit einer inhibierenden Wirkung von 50 %: 0,1 Gew.-% Rohstoff tel quel in wässriger Lösung
